{"source": "patent US20050255131A1", "about": "“Clindamycin compositions and delivery system therefor” (priority 2004, published 2005)", "key": {"[1]": {"assay": "Storage stability of clindamycin phosphate solutions", "type": "physicochemical", "conditions": "solution in water; elevated temperatures", "text": "For the clindamycin phosphate solution, a maximum of about 6% salt is soluble in water. This solution is not stable upon long-term storage at elevated temperatures. In order to utilize the chamber in a chamber delivery system wherein the contents of a small chamber are combined with the contents of a larger chamber, compositions containing a concentration of clindamycin phosphate higher than 6% are desirable. In accordance with the present disclosure, solutions containing concentrations of clindamycin in excess of 6% in a minimum amount of water may be prepared by using co-solvents such as glycerin. Clindamycin phosphate by itself is not soluble in glycerin alone. […] Thus, the present compositions may contain a solution of water, clindamycin and glycerin, wherein the amount of water is insufficient alone to solubilize the clindamycin. The term “solubilize” as used with respect to solubilizing clindamycin refers to the ability to dissolve clindamycin and optionally with heating and stirring and maintaining clindamycin in solution at room temperature for at least 24 hours."}, "[2]": {"assay": "Solubility of clindamycin phosphate in water, glycerin and water/glycerin co-solvent", "type": "physicochemical", "text": "For the clindamycin phosphate solution, a maximum of about 6% salt is soluble in water. This solution is not stable upon long-term storage at elevated temperatures. In order to utilize the chamber in a chamber delivery system wherein the contents of a small chamber are combined with the contents of a larger chamber, compositions containing a concentration of clindamycin phosphate higher than 6% are desirable. In accordance with the present disclosure, solutions containing concentrations of clindamycin in excess of 6% in a minimum amount of water may be prepared by using co-solvents such as glycerin. Clindamycin phosphate by itself is not soluble in glycerin alone. […] Thus, the present compositions may contain a solution of water, clindamycin and glycerin, wherein the amount of water is insufficient alone to solubilize the clindamycin. The term “solubilize” as used with respect to solubilizing clindamycin refers to the ability to dissolve clindamycin and optionally with heating and stirring and maintaining clindamycin in solution at room temperature for at least 24 hours. […] By increasing the concentration of clindamycin in solution by means of a co-solvent such as glycerin, the present methods make it possible to dissolve the salt in a small amount of water. […]"}}}
{"compound": "CCC[C@@H]1C[C@@H](C(=O)N[C@@H]([C@H]2O[C@H](SC)[C@H](OP(=O)(O)O)[C@@H](O)[C@H]2O)[C@H](C)Cl)N(C)C1", "note": "[clindamycin phosphate]", "values": [{"measurement": "stability of aqueous solution upon long-term storage", "setting": "[1]", "value": "not stable"}, {"measurement": "solubility in glycerin alone", "setting": "[2]; glycerin alone, no water", "value": "not soluble"}, {"measurement": "maximum salt soluble in water", "setting": "[2]; water alone", "value": "about 6%"}]}
